Legend:
[1] = system: vaginal hyperalgesia; experiment: Experimentally induced endometriosis in rats: escape response to vaginal distention (vaginal hyperalgesia); type: in vivo, Sprague-Dawley rats; conditions: 60 mg/kg/day, 8 weeks, 0.5 ml distension volume
Description: 16 adult virgin female Sprague-Dawley rats were used. They weighed 200-230 g at the start of the study and were housed individually in a temperature-controlled room in plastic cages lined with bedding. The rats had ad libitum access to water and rat chow and were maintained on a 12-h light/dark cycle, with lights on at 07:00. Reproductive status (proestrus, estrus, metestrus, and diestrus) was determined by daily vaginal lavage performed. Prior to induction of endometriosis rats were trained to perform an escape response to terminate vaginal distention produced by an inflatable latex balloon. A small uninflated latex balloon was tied to a thin catheter lubricated before being inserted into the mid-vaginal canal. Inflating the balloon with different volumes of air distended the vaginal canal. The pressure produced by each volume of distention was control measured through a small-volume pressure transducer. The testing apparatus was a small cylindrical plexiglass chamber designed to contain the rat just enough to prevent her from turning around. An opening in the rear of the chamber allowed the catheter attached to the vaginal stimulator to be connected to a stimulus apparatus. A photosensor determined the position of the rat in the chamber. If the rat extended, as part of an escape response, the light beam was broken and the stimulus was terminated. The rats were adopted to the testing chamber by placing it in the chamber for 15 min daily for 5 days. The rats were then, during training sessions, accustomed to a mechanical escape response to deflate vaginal distension, which involved the rat extending her head to interrupt the light beam. […] Time to response and escape responses were measured as a function of distention volume for each session, as described in Cason A M et al (Horm Behav. (2003), Vol. 44, pages 123-31). […] For each rat, the escape responses and pressures/volumes for all of that rat's sessions (at least 12 sessions) were combined, and the mean values calculated. […] The escape response to terminate vaginal distention, as described above, was assessed after 8 weeks.

[2] = system: ovarian endometriomas; experiment: Preliminary clinical study: size of ovarian endometriomas by ultrasound; type: in vivo; conditions: women
Description: Women with a first diagnosis of endometriosis, based on pain and on ovarian ultrasound evidence of the disease, and patients with a recurrence of pain and/or ovarian endometrioma after laparoscopic treatment were enrolled in the study,
(§1) Before treatment, the intensity of pain symptoms was measured by the means of a 10 points visual analogue scale (VAS) and the characteristics of the ovarian endometriomas by transvaginal ultrasounds. During NAC treatment, other treatments are excluded with the exception of analgesic to treat pain, when needed. Patients.
(§2) From February 2008 to July 2010, 64 women diagnosed for ovaric endometriosis were enrolled in the study, with a mean age of 35+−7 years (+−SD). […] All of them presented one or more cysts at one or both ovaries.
(§3) 1995; 4:245-51), the suspension of the treatment for about half of each week warrants an optimal biological response in a lengthy treatment, e.g. two to six months or longer.
(§4) Pain symptoms intensity (VAS pain scale) and the size of the ovarian endometriomas (clinical and US exams) were evaluated after the first three months of treatment. If necessary, laparoscopic treatment was performed after 3 months.

[3] = system: Ki-67; experiment: Ki-67 immunohistochemistry (labeling index) in cysts from mice; type: in vivo, BALB/C mice; conditions: 44 mg/kg/day, 21 days
Description: (§5) The day after the endometrial implant, mice of the treatment group were subjected to gavage with 100 [mu] […] The control group only received water. […] At the end of treatment, mice were killed through cervical dislocation.
(§6) Formalin-fixed samples were paraffin-embedded and tissue sections (5 [mu] [iota] [eta] thick) were stained using haematoxylin-eosin. All slides were evaluated by an experienced pathologist who was blind to the study and the histological diagnosis of endometriosis was based on the morphological identification of endometrial glandular tissue and stroma.
(§7) For immunohistochemistry, sections were deparaffinized and rehydrated in graded ethanol. For antigen retrieval, sections were microwaved for 6 min in 0.1 M citrate buffer (pH 6.0) and endogenous peroxidase activity was blocked by a 20 min incubation in 3% H202/methanol. Sections were rinsed in PBS/TritonX-100, immersed for 15 min in PBS-bovine serum albumin (BSA) 1% to block unspecific binding sites, and then incubated with the selected primary antibody diluted in PBS-BSA 1%. […] The quantification of Ki-67 expression was carried out in a blind fashion by two independent observers; each observer counted at least 200 cells in more than 10 randomly chosen fields for each sample and the Ki-67 labeling index was expressed in percentage.

[4] = system: P21 (cdkn1a); experiment: RT-PCR of P21 gene expression in cysts from mice; type: in vivo, BALB/C mice; conditions: 44 mg/kg/day, 21 days
Description: as §5
Total RNA was isolated by lysing the frozen endometrial cysts with TissueLyser (QIAGEN, Milan, Italy) using TRIzol Reagent (Invitrogen, Milan, Italy) according to the manufacturer's instructions. One microgram of total RNA from each sample was treated with 1 U of DNAse I (Invitrogen) and reverse transcribed with 200 U of Superscript III Reverse Transcriptase (Invitrogen), using 250 ng of random primers in 20 [mu] l of final volume. […]
First, the ratio between the sample and the housekeeping gene was calculated by simultaneous amplification of gene-specific mRNA and 18S RNA in a single reaction tube. Since this procedure was not successful for all samples—likely due to the relative small number of specific transcripts thus of a preferential amplification of 18S mRNA—to prevent quantitative inaccuracies deriving from competitive effects, the target genes and 18 S cDNA generated in the same RT reaction were amplified in separate tubes. […] Semi quantitative PCR was performed in a 25 [mu] […] The densitometric analyses of the PCR products were performed using an image software Quantity One (VersaDOC, Bio-Rad).

[5] = Toxicity observation in the murine endometriosis model; type: in vivo; conditions: mice, 44 mg/kg/day by gavage, 21 days
Excerpt: as §5

[6] = system: E-cadherin; experiment: Immunohistochemical detection of E-cadherin in cysts from mice; type: in vivo, BALB/C mice; conditions: 44 mg/kg/day, 21 days, controls: diffused all over cell cytoplasm
Description: as §5, §6, §7

[7] = system: endometriotic lesions; experiment: Murine model of endometriosis: growth (total weight) of endometriotic lesions; type: in vivo, BALB/C mice; conditions: mice, gavage 44 mg/kg/day daily for 21 days; n=10 vs n=10; p<0.05
Description: 36 female, 6 to 8 weeks-old BALB/C mice were purchased from Charles River Italia (Calco, Italy). Pellet food (enriched standard diet; Mucedola, Milan, Italy) and water were provided ad libitum. Animals were kept on a light/dark cycle of 16/8 hours under controlled conditions. Prior to any invasive procedure, the mice were anaesthetized by intraperitoneal injection of 0.4 ml of a physiological solution containing 2.5% AVERTIN.
Induction of endometriosis was performed following the method described in Somigliana et al, Hum Reprod 1999 December; 14(12):2944-50. Surgical interventions were performed under clean conditions. Briefly, uterine horns of syngenic mice were removed through a small midline incision into the peritoneal space, just below the umbilicus, and put into a Petri dish containing phosphate-buffered saline (PBS). Endometrial fragments were obtained by finely chopping uterine horns by using a razor blade. Fragments were suspended in 0.6 ml of PBS and rapidly inoculated into the peritoneal cavity of recipient mice with a ratio of one donor to two recipients. The endometriosis-induced mice were randomly divided into two groups of 12 mice each: control and NAC-treatment. […]
At the end of the treatment, animals were sacrificed and endometriotic lesions were carefully excised from the surrounding tissue, their total weight and number was assessed. […]

[8] = Preliminary clinical study: side effects, pregnancy and other observations; type: in vivo, women
Excerpt: as §2, §3, §4

[9] = cited from earlier work
[10] = Preliminary clinical study: pain intensity by 10-points visual analogue scale (VAS); type: in vivo, women; conditions: NAC-treated patients, 10-points VAS
Description: as §1, §2, §3, §4
Pain perception was also modified after NAC treatment. Pain was evaluated, before and after the three-months treatment, by a 10-points visual analogue scale (VAS) with zero representing no pain and 10 representing the worst imaginable pain. Intensity of symptoms were classified as none (0), mild (1-4), moderate (5-7), or severe (8-10). NAC-treated patients reported an average pain reduction, from 7.6+−0.3 to 5.1+−0.8 (p<0.01) after three months of treatment.

[11] = system: Cox-2 protein; experiment: Immunohistochemical detection of Cox-2 protein in cysts from mice; type: in vivo, BALB/C mice; conditions: 44 mg/kg/day, 21 days
Description: as §5, §6, §7

For `CC(=O)N[C@@H](CS)C(=O)O` [NAC, N-acetyl-L-cysteine], the “relative reduction in escape response in relation to sham treated group” value (“relative reduction in escape response” for short) ([1]; daily NAC treatment) was 18%, the “relative reduction in escape response” value ([1]; intermittent NAC treatment (5 days and 2 days rest)) was 28% and the “relative reduction in escape response” value ([1]; pulsed NAC treatment (every other day)) was 32%. The “cases with a decrease in cyst size (maximum diameter by ultrasound)” value ([2]; 1.8 g NAC per day, three consecutive days each week, three months, controls less than 10%) was 38%, the “patients who decided to cancel or postpone the programmed laparoscopy” value ([2]; NAC treatment three months) was 21 out of 33 and the “reduction in proliferating cells (Ki-67) relative to control mice” value ([3]; 8 animals per group) was 54%. For the same molecule, the “Labeling index for Ki-67 with standard error” value ([3]; n = 8 × 5, p < 0.01) was 0.87 ± 0.11%, the “P21 gene expressed, number of examined NAC-treated samples” value ([4]; never expressed in the 5 controls) was 3 of the 5 and the “P21 observed, percent of NAC-treated animals” value ([4]; not expressed in controls) was 60%. For the same molecule, the “body weight at the end of treatment” value [5] was “unchanged”, the “E-cadherin localisation in cysts” value [6] was “mainly detected along cell-cell junctions” and the “total weight of endometriotic lesions vs controls” value [7] was “significant weight reduction”. For the same molecule, the cases of pregnancy ([8]; NAC-treated women, no statistical significance attributed) was “three”, the “bleeding during laparoscopy after NAC treatment” value ([8]; anecdotic observation by surgeon, endometrioma more regular and compact) was “relevant reduction in bleeding” and the recto-vaginal septum nodule ([8]; one additional case) was “disappeared”. The adverse side effects ([8]; women, 1.8 g NAC per day, three days each week, three months) was “No adverse side effects”, the “time to peak concentration in plasma” value ([9]; in vivo) was “about one” and the “time to total clearance” value ([9]; in vivo) was “six and twelve”. The half-life ([9]; plasma) was “about three”, the “average pain (VAS) after three months of treatment” value ([10]; 1.8 g per day three days each week, p<0.01) was 5.1+−0.8 and the “average pain (VAS) before treatment” value ([10]; baseline) was 7.6+−0.3. The “Cox-2 protein immunohistochemical staining relative to cysts from control mice” value [11] was “quite a decreased staining”.
